In patent US20240391928A1, “COMPOSITIONS FOR THE TREATMENT OF FOOD AND CHEMICAL ADDICTION AND METHODS OF MAKING AND USING SAME” (Duke University, priority 2021, published 2024):

Tests used:
[1] = Pharmacokinetic analysis in C57BL/6 mice
Experimental: Pharmacokinetic Analysis. Male C57BL/6 mice were used for pharmacokinetic studies and were purchased from Charles River Laboratories. DAT KO mice were backcrossed for >10 generations onto a C57BL/6J (Jackson Laboratory, Bar Harbor, ME) genetic background. Mice were bred and maintained on a standard 12:12 hour light:dark cycle, socially housed, and supplied with standard laboratory chow and water ad libitum, except during testing. […] Plasma, brain and liver samples were collected over 24 hours. […] The mean concentration from 3 animals at each time-point was used in the pharmacokinetic (PK) analysis. PK parameters were calculated with Phoenix WinNonlin Software (Ver. 8.0, Certara).

hGHSR1a^A204E = hGHSR1a^A204E (Homo sapiens, UniProt Q92847, A204E); experiment: iCa2+ at A204E variant; assay type: cell-based; design: expressed in transfected cells; host or cells: HEK293/T, transient
Sequence of hGHSR1a^A204E (Q92847 whole entry A204E): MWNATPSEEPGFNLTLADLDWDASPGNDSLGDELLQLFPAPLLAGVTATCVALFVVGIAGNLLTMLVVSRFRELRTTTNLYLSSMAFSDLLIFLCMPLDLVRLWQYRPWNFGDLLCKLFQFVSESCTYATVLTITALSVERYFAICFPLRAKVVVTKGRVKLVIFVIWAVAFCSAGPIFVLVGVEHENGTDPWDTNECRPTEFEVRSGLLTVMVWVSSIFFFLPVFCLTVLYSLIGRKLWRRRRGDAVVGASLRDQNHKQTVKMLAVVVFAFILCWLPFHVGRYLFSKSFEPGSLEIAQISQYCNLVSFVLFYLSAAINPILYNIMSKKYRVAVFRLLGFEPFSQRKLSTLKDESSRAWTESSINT
Experimental: (§1) For experiments with WT and Gt KO HEK293/S cells, […] of hGHSR1a^WT, 10 μg of miAEQ, and 2.5 μg of pcDNA3.1 was transiently transfected into 10 cm dishes and incubated overnight. […] Twenty-four hours later, experiments proceeded in accordance with the procedures described above. To control for any possible kinetic differences in genetically modified cell lines or GHSR1a variants, the average ligand-induced response over 10 seconds was calculated, then normalized by dividing the L-miAeq by the L-miAeq plus the Lysis-miAeq and normalized to the appropriate control/reference condition.

hGHSR1a^WT [2] = target: T1, hGHSR1a^WT (Homo sapiens, UniProt Q92847); experiment: Gαq-dependent intracellular Ca2+ mobilization (iCa2+, miAeq); assay type: cell-based; design: HEK293/T (transient); HEK293S Gαq knockout (transient, NanoBiT Gαq)
T1 sequence (Q92847 whole entry): as the sequence (Q92847 whole entry A204E) above, with E204A counted along it
Experimental: Gαq-Dependent Intracellular Ca^2+ Mobilization. […] Cells were split into and seeded into 10 cm dishes without antibiotic selection and grown to confluency overnight. The next morning, cells were serum starved in 10 mL of clear opti-MEM (supplemented with L-glutamine and HEPES; Gibco, Waltham, MA) for 3-4 hours in a 37° C. incubator with 5% CO2. Then, 25 μL of coelenterazine H (NanoLight Technology, Pinetop, AZ) was added to each 10 mL dish and incubated for another 1-2 hours. For antagonist assays, test compounds were either added directly to the media in 10 cm dishes, or cells were collected by gentle washing/trituration and plated onto white, clear-bottomed 96-well plates for 30 minutes—1 hour. Once the coelenterazine H (or antagonist) incubation was complete, cells were harvested from the 10 cm dish by gentle washing/trituration and collected in a 15 mL conical tube. Cell suspensions were then immediately subjected to assay by injecting cells onto a white, clear-bottomed 96-well plate containing 2× test compounds. Luminescence was read without delay and for 10 seconds per well. To control for cell number variability, cells were lysed in 2× lysis buffer (100 mM CaCl2+0.2% Triton-X) immediately following the assay. The max ligand-induced response (Ca^2+ mobilization: net-miAeq) over 10 seconds was normalized by dividing the ligand-induced luminescence counts (L-miAeq) by the ligand-induced luminescence counts (L-MiAeq) plus the luminescence measured upon cell lysis (Lysis-miAeq). Relative, lysis-normalized data were then normalized to the appropriate control/reference condition.
as §1

hGHSR1a^WT [3] = target: T1, hGHSR1a^WT; experiment: SRF-RE transcriptional activity; assay type: cell-based; design: expressed in transfected cells; HEK293/S Gαq/11 KO and parental WT (iCa2+)
Experimental: The next morning, media was removed and cells were serum starved with 90 μL of opti-MEM (containing no serum) for 2 hours at 37° C. Cells were then stimulated with 10× test compounds (diluted in serum-free opti-MEM) for 5 hours at 37° C. in a humidified incubator. Cells were then lysed in 20 μL of 1× passive lysis buffer (Promega) for 10 minutes on a shaker (RT). To measure luminescence, 40 μL of luciferin (in HBSS supplemented with 20 mM HEPES) was injected into in each well and immediately read by a Mithras 940 plate reader for 10 seconds.

C57BL/6J mice = experiment: Cocaine-induced behavioral sensitization; assay type: in vivo, mouse; conditions: N8279 5 mg/kg IP; cocaine 20 mg/kg
Experimental: Next, cocaine-induced behavioral sensitization was assessed in male and female C57BL/6J mice following subchronic (8-day) administration of the vehicle or N8279 (5 mg/kg, IP) in the home-cage. Subsequently, mice were given the same treatments as described above, followed with an injection (IP) of vehicle or cocaine (20 mg/kg) in the open-field once per day for 5 days (FIG. 4D). A […] hiatus (washout) was imposed and behavioral sensitization was assessed the next day by giving (IP) vehicle or cocaine (challenge). […] By comparison, motor activities were stimulated acutely (day 1) to similar extents in the vehicle+cocaine and N8279+cocaine mice (FIG. 4E). […] Moreover, at challenge (day 11), locomotor activity was augmented relative to day 1 in the vehicle+cocaine mice, whereby no change in activity was evident in the N8279+cocaine mice.
Cocaine Sensitization. Male and female C57BL6/J mice (Jackson Labs, Bar Harbor, ME) were administered (IP) vehicle or N8279 (5 mg/kg) subchronically for 8 consecutive days (once/day) (FIG. 4D). Subsequently, mice were placed into the open-field (Accuscan Instruments, Columbus, OH) for 30 min, they were removed, injected (IP) with vehicle or N8279, returned to the open field for 30 min, then the mice were given (IP) vehicle or cocaine (20 mg/kg) and returned to the open-field for 120 minutes (FIG. 4D). […]

**Q.** Which “brain:plasma ratio” value ([1]; IP) does the source give for `COc1ccc(C(=O)c2c(C(=O)NCCCN(C)C)oc3ccc(Cl)cc3c2=O)cc1OC` [Example N8279, 6-Chloro-3-(3,4-dimethoxybenzoyl)-N-(3-(dimethylamino)propyl)-4-oxo-4H-chromene-2-carboxamide] here?
**A.** 0.6-0.9

**Q.** What about the AUCextrap ([1]; IP 5 mg/kg, brain) of the same compound?
**A.** 7.1%

**Q.** And the “AUC ratio (tissue/plasma)” value ([1]; IP 5 mg/kg, brain/plasma)?
**A.** 0.6

**Q.** What about the AUCextrap ([1]; IP 5 mg/kg, liver) of the same compound?
**A.** 0.1%

**Q.** And the “AUC ratio (tissue/plasma)” value ([1]; IP 5 mg/kg, liver/plasma)?
**A.** 49

**Q.** And the AUCextrap ([1]; IP 5 mg/kg, plasma)?
**A.** 0.6%

**Q.** What about the AUCextrap ([1]; IV 1 mg/kg, brain) of the same compound?
**A.** 10%

**Q.** What about the “AUC ratio (tissue/plasma)” value ([1]; IV 1 mg/kg, brain/plasma) of the same compound?
**A.** 0.8

**Q.** What about the AUCextrap ([1]; IV 1 mg/kg, liver) of the same compound?
**A.** 0.2%

**Q.** What about the “AUC ratio (tissue/plasma)” value ([1]; IV 1 mg/kg, liver/plasma) of the same compound?
**A.** 40

**Q.** And the AUCextrap ([1]; IV 1 mg/kg, plasma)?
**A.** 2.4%

**Q.** What about the AUCextrap ([1]; PO 5 mg/kg, brain) of the same compound?
**A.** 24%

**Q.** What about the “AUC ratio (tissue/plasma)” value ([1]; PO 5 mg/kg, brain/plasma) of the same compound?
**A.** 0.9

**Q.** What about the AUCextrap ([1]; PO 5 mg/kg, liver) of the same compound?
**A.** 0.1%

**Q.** And the “AUC ratio (tissue/plasma)” value ([1]; PO 5 mg/kg, liver/plasma)?
**A.** 77

**Q.** What about the AUCextrap ([1]; PO 5 mg/kg, plasma) of the same compound?
**A.** 11%

**Q.** What about the “brain half-life (t1/2) after IP and PO administration” value ([1]; brain, IP and PO 5 mg/kg) of the same compound?
**A.** 6.6 to 11 h

**Q.** And the bioavailability ([1]; male, C57BL/6, mouse, in vivo, ip, 5 mg/kg)?
**A.** 27%

**Q.** And the AUC(0-t) ([1]; male, C57BL/6, mouse, liver, iv, 1 mg/kg)?
**A.** 57100 ng·h/mL

**Q.** What about the Cmax ([1]; read-out: peak concentration (Cmax) in brain, IP 5 mg/kg, brain) of the same compound?
**A.** 259 nM

**Q.** What about the “iCa2+ efficacy at GHSR1a^A204E in words” value (hGHSR1a^A204E) of the same compound?
**A.** full agonism was retained

**Q.** What about the “iCa2+ potency reduction at GHSR1a^A204E vs WT” value (hGHSR1a^A204E) of the same compound?
**A.** 6.5 fold

**Q.** And the “iCa2+ EC50, fold more potent than own GHSR1a binding IC50” value (hGHSR1a^WT [2])?
**A.** 41 fold

**Q.** And the “iCa2+ potency, fold less potent than L585” value (hGHSR1a^WT [2])?
**A.** 3.4 fold

**Q.** What about the “iCa2+ potency, fold less potent than MK-0677” value (hGHSR1a^WT [2]) of the same compound?
**A.** 5.3 fold

**Q.** What about the “iCa2+ potency, fold more potent than ghrelin” value (hGHSR1a^WT [2]) of the same compound?
**A.** 8.9 fold

**Q.** What about the “increase in ghrelin's iCa2+ potency by N8279” value (hGHSR1a^WT [2]; N8279 10 μM, concomitant) of the same compound?
**A.** ~3 fold

**Q.** And the “modulation of ghrelin-induced iCa2+ in words” value (hGHSR1a^WT [2]; concomitant N8279)?
**A.** weak ago-PAM activity

**Q.** And the “iCa2+ efficacy in words” value (hGHSR1a^WT [2]; relative to ghrelin)?
**A.** full agonist

**Q.** And the “SRF-RE potency reduction relative to L585” value (hGHSR1a^WT [3])?
**A.** ~10 fold

**Q.** What about the “SRF-RE potency reduction relative to ghrelin” value (hGHSR1a^WT [3]) of the same compound?
**A.** ~15 fold

**Q.** What about the “SRF-RE transcription efficacy in words” value (hGHSR1a^WT [3]) of the same compound?
**A.** full agonist

**Q.** What about the “cocaine-induced behavioral sensitization in words” value (C57BL/6J mice) of the same compound?
**A.** delayed the appearance of sensitization across days and abrogated the expression of sensitization following washout
